Read-outs that look alike come from different tables or passages of the source.
Experiments:
[1] = PBS (pH 7.4), n=6; cited from earlier work
[2] = in vivo, po, 6 mg
Experimental: The study compared various dose routes: sublingual (SL), per oral tablet (PO), subcutaneous (SC) and intravenous (IV). […] An Oral Irritation assessment was performed (SL film group): Predose (0) and 24 hr postdose by Draize scoring.

For `CNC[C@H](O)c1ccc(O)c(O)c1` [Epinephrine Bitartrate], the average flux (30 min, 16 mg/mL) was 0 μg/cm2*min, the average flux (45 min, 16 mg/mL) was 0.2604 μg/cm2*min and the average flux (60 min, 16 mg/mL) was 0.3125 μg/cm2*min. It also gave an average flux (120 min, 16 mg/mL) of 0.6727 μg/cm2*min, an average flux (180 min, 16 mg/mL) of 1.076 μg/cm2*min and an average flux (240 min, 16 mg/mL) of 1.029 μg/cm2*min. The average flux (300 min, 16 mg/mL) was 1.25 μg/cm2*min, the “Average Steady State flux” value (360 min, 4 mg/mL) was 0.167 ug/cm2*min and the “Average Steady State flux” value (360 min, 8 mg/mL) was 0.466 ug/cm2*min. The “Average Steady State flux” value (360 min, 16 mg/mL) was 1.317 ug/cm2*min, the average flux (360 min, 16 mg/mL) was 1.385 μg/cm2*min and the “Average Steady State flux” value (360 min, 100 mg/mL) was 2.942 ug/cm2*min.
In the case of `CC(C)NCC(O)COc1cccc2ccccc12` (centres unmarked) [PP], the “C0 of saturated solution” value [1] is listed as 588005 ± 5852 µg/mL.
In the case of `CNC[C@H](O)c1ccc(OC(=O)C(C)(C)C)c(OC(=O)C(C)(C)C)c1` (racemic) [dipivefrin], the “DIPI Tmax” value [2] is reported as 0 h.
